In patent publication US6608086B2, “Dihydropyridines and new uses thereof” (Synaptic Pharmaceutical Corporation, priority 1993, dated 2003):
Counter-ions that a name gives are not always drawn. Like-named read-outs stand apart in the source and are kept apart here.

Tests used:
α2A receptor = biological target: T1, α2A receptor (Homo sapiens, UniProt P08913); assay: Competition binding, [3H]rauwolscine, human α2A receptor
T1 construct: host or cells: LM(tk-) cells, line L-α2A
T1 sequence (P08913 1-465): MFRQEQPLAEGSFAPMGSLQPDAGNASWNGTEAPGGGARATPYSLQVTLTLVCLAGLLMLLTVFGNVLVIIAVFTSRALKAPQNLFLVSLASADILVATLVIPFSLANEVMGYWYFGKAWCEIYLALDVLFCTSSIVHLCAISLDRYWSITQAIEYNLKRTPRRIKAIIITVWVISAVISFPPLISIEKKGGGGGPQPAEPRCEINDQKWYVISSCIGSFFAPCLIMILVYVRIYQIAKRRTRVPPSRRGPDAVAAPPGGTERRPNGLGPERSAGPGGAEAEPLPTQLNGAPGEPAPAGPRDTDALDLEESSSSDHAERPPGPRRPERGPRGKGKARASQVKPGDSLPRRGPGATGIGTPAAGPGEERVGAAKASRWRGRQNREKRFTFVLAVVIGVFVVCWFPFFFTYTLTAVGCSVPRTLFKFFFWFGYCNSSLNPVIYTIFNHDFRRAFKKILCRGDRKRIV
Procedure, shortened: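 LM(tk−) lysates, stable α2A/α2B/α2C transfectants; 25 mM glycylglycine pH 7.6 (RT). [3H]rauwolscine 0.5 nM, equilibrium competition; NSB 10 μM phentolamine. GF/B filtration, cell harvester.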

[1] = biological target: T2, α1B Human Adrenergic Receptor (Homo sapiens, UniProt P35368); assay: Radioligand binding, [3H]prazosin, cloned human α1B adrenergic receptor; settings: cloned human receptor in LM(tk-) cell membranes, SEM and n in lines below
T2 construct: The entire coding region of α1B (1563 bp); expressed in transfected cells
T2 sequence (P35368 1-520): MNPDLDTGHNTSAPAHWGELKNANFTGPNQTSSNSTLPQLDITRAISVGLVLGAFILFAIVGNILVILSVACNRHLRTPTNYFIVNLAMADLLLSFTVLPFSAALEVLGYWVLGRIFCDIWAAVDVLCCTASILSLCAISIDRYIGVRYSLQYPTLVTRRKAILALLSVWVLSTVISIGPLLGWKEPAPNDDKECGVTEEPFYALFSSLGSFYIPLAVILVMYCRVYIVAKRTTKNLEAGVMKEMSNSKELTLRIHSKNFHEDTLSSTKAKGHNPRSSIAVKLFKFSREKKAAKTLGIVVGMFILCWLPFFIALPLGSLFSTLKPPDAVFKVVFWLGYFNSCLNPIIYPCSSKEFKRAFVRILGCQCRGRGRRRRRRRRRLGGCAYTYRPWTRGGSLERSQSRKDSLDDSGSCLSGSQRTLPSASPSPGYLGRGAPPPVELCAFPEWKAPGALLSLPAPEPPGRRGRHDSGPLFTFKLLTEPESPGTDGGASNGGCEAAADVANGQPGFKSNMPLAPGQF
Procedure, shortened: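 Membranes from stably transfected LM(tk−) cells, resuspended in 50 mM Tris-HCl, 1 mM MgCl2, 0.1% ascorbic acid, pH 7.5, were incubated with 0.5 nM [3H]prazosin for 20 min at 37° C. Nonspecific binding defined with 10 μM phentolamine; bound ligand separated by GF/B filtration.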

[2] = biological target: T3, α1C Human Adrenergic Receptor (Homo sapiens, UniProt P35348); assay: Radioligand binding, [3H]prazosin, cloned human α1C adrenergic receptor; settings: cloned human receptor in LM(tk-) cell membranes, SEM and n in lines below
T3 construct: The entire coding region of α1C (1401 bp); expressed in transfected cells
T3 sequence (P35348 1-466): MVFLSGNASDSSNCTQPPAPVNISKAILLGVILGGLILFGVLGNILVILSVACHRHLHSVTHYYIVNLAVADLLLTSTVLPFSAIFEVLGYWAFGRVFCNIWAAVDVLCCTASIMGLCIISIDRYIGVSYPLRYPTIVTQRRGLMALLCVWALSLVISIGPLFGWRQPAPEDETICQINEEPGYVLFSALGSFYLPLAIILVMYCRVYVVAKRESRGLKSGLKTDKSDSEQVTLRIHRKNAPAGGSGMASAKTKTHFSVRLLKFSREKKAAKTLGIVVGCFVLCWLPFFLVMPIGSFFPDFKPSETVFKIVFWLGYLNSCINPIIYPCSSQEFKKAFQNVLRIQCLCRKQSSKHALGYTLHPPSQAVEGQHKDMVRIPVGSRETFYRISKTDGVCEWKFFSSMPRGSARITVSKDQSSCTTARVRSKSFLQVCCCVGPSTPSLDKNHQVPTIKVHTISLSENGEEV
Procedure, shortened: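 Read-out is filter-retained [3H]prazosin (0.5 nM) bound to membranes of LM(tk−) cells stably carrying the human α1C receptor. Incubation ran 20 min at 37° C. at pH 7.5, with 10 μM phentolamine marking nonspecific binding.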

[3] = read-out: pKi alpha-1 1b (converted)
[4] = read-out: pKi alpha-1 1c (converted)
[5] = [3H]rauwolscine, LM(tk-) cell line L-α2A, SEM and n in lines below, read-out: pKi alpha-2 2a (converted)

SMILES	Ki (α2A receptor) [nM]	Ki [1, 3] [nM]	Ki [2, 4] [nM]	Ki (α2A receptor; [5]) [nM]	Ki ([1]; pKi alpha-1 1b) [nM]	Ki ([2]; pKi alpha-1 1c) [nM]
COC(=O)C1=C(C)NC(C)=C(C(=O)NCCCN2CCC(c3ccccc3)(c3ccccc3)CC2)C1c1ccc(C)cc1 (stereo not drawn) [Example 19, 1,4-Dihydro-3-methoxycarbonyl-1,6-dimethyl-4-(4-methylphenyl)-5-(N-(3-(4,4-diphenylpiperidin-1-yl)propyl)carboxamido)pyridine]	1290	269	1.35	–	–	–
COC(=O)C1=C(C)NC(C)=C(C(=O)NCCCN2CCC(c3ccccc3)(c3ccccc3)CC2)C1c1ccc(F)cc1 (stereo not drawn) [Example 20, 4-(4-Fluorophenyl)-1,4-dihydro-3-methoxycarbonyl-2,6-dimethyl-5-(N-(3-(4,4-diphenylpiperidin-1-yl)propyl)carboxamido)pyridine]	1780	120	3.8	–	–	–
COC(=O)C1=C(C)NC(C)=C(C(=O)NCCCN2CCC(c3ccccc3)(c3ccccc3)CC2)C1c1ccc(OC)cc1 (stereo not drawn) [Example 21, 1,4-Dihydro-3-methoxycarbonyl-4-(4-Methoxyphenyl)-2,6-dimethyl-5-(N-(3-(4,4-diphenylpiperidin-1-yl)propyl)carboxamido)pyridine]	2090	204	7.08	–	–	–
COC(=O)C1=C(C)NC(C)=C(C(=O)NCCCN2CCC(c3ccccc3)(c3ccccc3)CC2)C1c1ccc2ccccc2c1 (stereo not drawn) [Example 22]	1580	138	36.3	–	–	–
COC(=O)C1=C(C)NC(C)=C(C(=O)NCCCN2CCC(c3ccccc3)(c3ccccc3)CC2)C1c1ccoc1 (stereo not drawn) [Example 23, 4-(3-Furyl)-1,4-dihydro-3-methoxycarbonyl-2,6-dimethyl-5-(N-(3-(4,4-diphenylpiperidin-1-yl)propyl)carboxamide)pyridine]	–	–	–	955	214	14.5
COC(=O)C1=C(C)NC(C)=C(C(=O)NCCCN2CCC(c3ccccc3)(c3ccccc3)CC2)C1c1ccc(Cl)c(Cl)c1 (stereo not drawn) [Example 24, 4-(3,4-Dichlorophenyl)-1,4-dihydro-3-methoxycarbonyl-2,6-dimethyl-5-(3-(D 44-diphenylpiperidin-1-yl)propylcarboxamido)pyridine]	912	115	1.86	–	–	–
COC(=O)C1=C(C)NC(C)=C(C(=O)NCCCN2CCC(c3ccccc3)(c3ccccc3)CC2)C1c1ccc(C(=O)OC)cc1 (stereo not drawn) [Example 25, 1,4-Dihydro-3-methoxycarbonyl-4-(4-methoxycarbonylphenyl)-2,6-dimethyl-5-(N-(3-(4,4-diphenylpiperidin-1-yl)propyl)carboxamide)pyridine]	1510	331	33.9	–	–	–
COC(=O)C1=C(C)NC(C)=C(C(=O)NCCCN2CCC(c3ccccc3)(c3ccccc3)CC2)C1c1ccc(OC)c(OC)c1 (stereo not drawn) [Example 26]	2140	437	7.08	–	–	–
COC(=O)C1=C(C)NC(C)=C(C(=O)NCCCN2CCC(c3ccccc3)(c3ccccc3)CC2)C1c1cc(OC)c(OC)c(OC)c1 (stereo not drawn) [Example 27]	1950	324	3.63	–	–	–
COC(=O)C1=C(C)NC(C)=C(C(=O)NCCCN2CCC(c3ccccc3)(c3ccccc3)CC2)C1c1ccc([N+](=O)[O-])c(C)c1 (stereo not drawn) [Example 28]	–	–	9.55	2290	240	–
COC(=O)C1=C(C)NC(C)=C(C(=O)NCCCN2CCC(c3ccccc3)(c3ccccc3)CC2)C1c1ccc([N+](=O)[O-])c(OC)c1 (stereo not drawn) [Example 29, 1,4-Dihydro-3-methoxycarbonyl-4-(3-methoxy-4-nitrophenyl)-2,6-dimethyl-5-(N-(3-(4,4-diphenylpiperidin-1-yl)propyl)carboxamido)pyridine]	–	–	1.48	692	141	–
CC1=C(C#N)C(c2ccc([N+](=O)[O-])cc2)C(C(=O)NCCCN2CCC(c3ccccc3)(c3ccccc3)CC2)=C(C)N1 (stereo not drawn) [Example 37]	708	200	22.9	–	–	–
CC1=C(C(=O)NCCCN2CCC(c3ccccc3)(c3ccccc3)CC2)C(c2ccc([N+](=O)[O-])cc2)C2=C(CCCC2=O)N1 (stereo not drawn) [Example 40, 1,4,5,6,7,8-Hexahydro-2-methyl-4-(4-nitrophenyl)-5-oxo-3-{N-[3-(4,4-diphenylpiperidin-1-yl)propyl]}carboxamidoquinoline]	–	–	–	1860	275	13.8
CCC1=C(C(N)=O)C(c2ccc([N+](=O)[O-])cc2)C(C(=O)NCCCN2CCC(c3ccccc3)(c3ccccc3)CC2)=C(C)N1 (stereo not drawn) [Example 41, 3-Carboxamido-2-ethyl-1,4-dihydro-6-methyl-4-(4-nitrophenyl)-3-{N-[3-(4,4-diphenylpiperidin-1-yl)propyl]}carboxamidopyridine]	–	–	–	427	295	1.82
CCC1=C(C(N)=O)C(c2ccc([N+](=O)[O-])cc2)C(C(=O)NCCCN2CCC(c3ccccc3)(c3ccccc3)CC2)=C(CC)N1 (stereo not drawn) [Example 42, 5-carboxamido-2,6-diethyl-1,4-dihydro-4-(4-nitrophenyl)-3-{N-[3-(4,4-diphenylpiperidin-1-yl)propyl]}carboxamidopyridine]	–	–	–	324	282	1.26
COC(=O)C1=C(C)NC(c2ccoc2)=C(C(=O)NCCCN2CCC(c3ccccc3)(c3ccccc3)CC2)C1c1ccc([N+](=O)[O-])cc1 (stereo not drawn) [Example 43, 2-(Furan-3-yl)-, 4-dihydro-5-methoxycarbonyl-6-methyl-4-(4-nitrophenyl)-3-(N-(3-(4,4-diphenylpiperidin-1-yl)propyl)carboxamidopyridine, hydrochloride salt]	–	–	–	661	182	2.4
COC(=O)C1=C(C)NC(C)=C(C(=O)N(C)CCCN2CCC(c3ccccc3)(c3ccccc3)CC2)C1c1ccc([N+](=O)[O-])cc1 (stereo not drawn) [Example 46, hydrochloride hemihydrate]	676	240	20.4	–	–	–
COC(=O)C1=C(C)NC(C)=C(C(=O)NCCN2CCC(c3ccccc3)(c3ccccc3)CC2)C1c1ccc([N+](=O)[O-])cc1 (stereo not drawn) [Example 52, 1,4-Dihydro-3-methoxycarbonyl-2,6-dimethyl-4-(4-nitrophenyl)-5-{N-[2-(4,4-diphenylpiperidin-1-yl)ethyl]}carboxamidopyridine hydrochloride hemihydrate]	513	77.6	8.71	–	–	–
CC1=C(C(N)=O)C(c2ccc([N+](=O)[O-])cc2)C(C(=O)NCCN2CCC(c3ccccc3)(c3ccccc3)CC2)=C(C)N1 (stereo not drawn) [Example 54, 5-Carboxamide-1,4-dihydro-2,6-dimethyl-4-(4-nitrophenyl)-3-{N-[2-(4,4-diphenylpiperidin-1-yl)ethyl]}carboxamidopyridine hydrochloride hydrate]	–	–	–	468	174	12.3
